Source: patent US7361263B2, “Water treatment apparatus and method” (Sanyo Electric Co., Ltd., priority 2002, dated 2008)
Where a name gives a salt, the structure may show the parent alone. Read-outs that look alike come from different tables or passages of the source.

How the values were obtained:
[1] = Mutagenicity test (umu-test); format: cell-based
Procedure: The test was conducted according to the instruction manual included in the kit of “Umu-test” from Japan Immunoresearch Laboratories Co., Ltd.

[2] = system: Escherichia coli (coliform bacillus) NIHJ JC-2; assay: Test of antibacterial activity of epirubicin hydrochloride (MIC, small amount broth dilution); format: cell-based; conditions: read-out: minimum inhibitory concentration (MIC)
Procedure: (§1) The pharmaceutical stock solution disclosed in the standard method was replaced with the samples of the present example for testing. As the culture medium for measuring sensitivity, Cation Supplemented Mueller-Hinton Broth: CSMHB (obtained from EIKEN CHEMICAL CO., LTD.) was employed. This CSMHB was poured 90 μl each into a U-shaped bottom 96-well microplate. Samples taken 0, 2, 4 and 6 hours from initiation of electrolysis described in the above 2 were prepared. A diluted solution of respective samples was prepared in accordance with the standard method. […] The bacilli used in the present example were identical to the two types of bacillus employed in Example 1, i.e. Staphylococcus aureus (staphylococcus bacteria) FDA […] and Escherichia coli (coliform bacillus) NIHJ JC-2. […] This solution was inoculated approximately 0.005 ml in each well of the plate set forth above within 15 minutes from preparation of the solution including bacillus. A medium not containing the agent was poured into 1-2-wells as the control of the development of bacillus. Cultivation was conducted for 18-24 hours at 35° C.

[3] = system: Staphylococcus aureus (staphylococcus bacteria) FDA 209P; assay: as above; format: cell-based; conditions: for MIC: Staphylococcus aureus, FDA209P, read-out: minimum inhibitory concentration (MIC)
Procedure: as §1

[4] = Cytotoxicity (CC50) test, WST-8; format: cell-based, human; conditions: human; electrolyzing time 0 hours; Molt-4 cells, cultured three days
Text: For the measurement of the number of cells, tetrazolium salt WST-8 (Cell Counting Kit-8 available as a kit) was employed as the chromophone. The basic principle of the cytotoxicity (CC50) test is set forth below. WST-8 is reduced by intracellular dehydrogenation enzyme to produce soluble formazan. Since the number of cells and the amount of generated formazan is linearly proportional, the number of cells can be readily measured by directly measuring the absorbancy of formazan at 450 nm. The specific procedure for measurement is set forth below. 180 μl of a culture medium was introduced into each of the wells in the range of rows A-D and columns 3-10 in a 96-well flat microtiter plate for diluting the agent. 240 μl of the sample taken at 0 hours from initiation of electrolysis was added to the well of row A, column 2 in the microtiter plate. 240 μl of the sample taken 2 hours from initiation of electrolysis was added to the well of row B, column 2. 240 μl of the sample taken 4 hours from initiation of electrolysis was added to the well of row C, column 2. 240 μl of the sample taken 6 hours from initiation of electrolysis was added to the well of row D, column 2. To produce respective columns of sample dilutions, samples of 60 μl each was taken from the above-described samples of 240 μl. These samples of 60 μl were sequentially added to the right side well to be sufficiently pipeted. This was conducted up to column 10. Two of U-bottom 96-well microtiter plates for cultivation were prepared, and 200 μl of PBS was applied to all the side-most wells. 100 μl of culture medium was introduced into each of the wells of rows B-G, columns 2-9. 150 μl of culture medium was introduced into the wells of columns 10 and 11. Then, 50 μl of cell suspension solution prepared to 5×10^6 cell/ml was introduced into each of the wells of rows B-G, columns 2-9 and column 11. The wells of column 10 were absent of cells. […] Then, the O.D. was measured at 450 nm and 620 nm using a microplate reader.

MIC ([2]; NIHJJC2, electrolyzing time 0 hours): > 200 µg/mL | MIC ([2]; NIHJJC2, electrolyzing time 2 hours): > 200 µg/mL | MIC ([2]; NIHJJC2, electrolyzing time 4 hours): > 200 µg/mL | MIC ([2]; NIHJJC2, electrolyzing time 6 hours): > 200 µg/mL | MIC ([3]; electrolyzing time 0 hours): 1.56 µg/mL | MIC ([3]; electrolyzing time 2 hours): 25 µg/mL | MIC ([3]; electrolyzing time 4 hours): > 200 µg/mL | MIC ([3]; electrolyzing time 6 hours): > 200 µg/mL | relative MIC value (MIC at 0 hour set as 1) ([3]; electrolyzing time 0 hours): 1 | relative MIC value (MIC at 0 hour set as 1) ([3]; electrolyzing time 2 hours): 1/16
SMILES: COc1cccc2c1C(=O)c1c(O)c3c(c(O)c1C2=O)C[C@@](O)(C(=O)CO)C[C@@H]3O[C@H]1C[C@H](N)[C@@H](O)[C@H](C)O1 [epirubicin hydrochloride]
concentration of the tube showing the mutagenicity induction level (fifth tube) ([1]; 0 hours from initiation of electrolysis): 24.7 μ/ml | umu-test absorbancy of the first tube (O.D.620 nm) ([1]; at all of 0, 2, 4 and 6 hours from initiation of electrolysis): exceeded 0.2 | umu-test result (positivity / negativity) ([1]; at all of 0, 2, 4 and 6 hours from initiation of electrolysis, cut off value approximately 0.18): positivity | mutagenicity after the electrolytic process relative to before ([1]; lines diluted by three times, 1/3^4): 1/81 | CC50 at 3 days [4]: 0.066 µg/mL
